Assay results as given in patent publication US9789149B2, “Vegetation water composition for treatment of inflammatory skin conditions” (CreAgri, Inc., priority 2005, dated 2017).

Legend:
[1] = humans; Visioli et al., 2000; cited from earlier work
[2] = system: 12-lipoxygenase; conditions: de la Puerta et al., 1999; Kohyama et al., 1997; cited from earlier work
[3] = system: 5-lipoxygenase; conditions: de la Puerta et al., 1999; Kohyama et al., 1997; cited from earlier work
[4] = system: various human cellular systems; conditions: Manna et al., 2000; cited from earlier work
[5] = system: peroxynitrite dependent DNA base modification and tyrosine nitration; conditions: Deiana et al., 1999; cited from earlier work
[6] = system: low density lipoprotein (LDL) oxidation; conditions: Visioli and Galli, 1998; cited from earlier work
[7] = system: platelet aggregation; conditions: Petroni et al., 1995; cited from earlier work
[8] = system: erythema nodosum; test: Example 1: patient with erythema nodosum treated with vegetation water composition tablets; assay type: in vivo, human; conditions: 5 mg predonine for nearly 2.3 years
Method: In studies conducted in support of the invention, compositions comprised of the vegetation water composition were prepared and administered to test subjects, as set forth in Examples 1-6. Briefly, the pitted pulp of olives was masticated and pressed to produce a liquid-phase mixture and solid by-products. The solid by-products were separated and removed from the liquid-phase mixture by filtration and centrifugation. The liquid-phase mixture was allowed to rest to allow the oil and aqueous fractions to segregate. The aqueous phase was decanted and acidified with citric acid to adjust the pH between 2 and 4. The acidified aqueous fraction was concentrated by distillation under vacuum and dried by spray drying or oven drying under vacuum to obtain a powder, which was used to prepare the tablets as used in Examples 1-6. Each tablet contained 90 mg of olive pulp solids, 5.4 mg of total polyphenols, and ˜2.5 mg of hydroxytyrosol.
In another embodiment, the compositions of the invention are suitable for treating erythema nodosum. Erythema nodosum is an inflammatory condition characterized by tender, red bumps, and is usually found on the shins, but may also occur on other areas of the body such as the buttocks, calves, ankles, thighs, and upper extremities. Quite often, erythema nodosum is not a separate disease, but, rather, a sign of some other disease, or of sensitivity to a drug. […]

Row | Compound | absorption following ingestion [1] | inhibition of 12-lipoxygenase [2] | inhibition of 5-lipoxygenase [3] | cytotoxicity induced by reactive oxygen species [4] | peroxynitrite dependent DNA base modification and tyrosine nitration [5] | LDL oxidation [6] | platelet aggregation [7] | erythema nodosum lesions, prior treatment [8]
1 | OCCc1ccc(O)c(O)c1 [hydroxytyrosol, 3,4-dihydroxyphenethyl alcohol] | dose-dependently absorbed | inhibits | inhibits | counteracts | inhibitory effect | prevents | prevents | –
2 | C[C@]12C=CC(=O)C=C1CC[C@@H]1[C@@H]2[C@@H](O)C[C@@]2(C)[C@H]1CC[C@]2(O)C(=O)CO [predonine] | – | – | – | – | – | – | – | little resolution
